Source: patent publication US20080280974A1, “Spiro compounds for treatment of inflammatory disorders” (priority 2007, published 2008)
Each block holds one compound with its values, some of them ahead of it.

Assays:
[1] = tested on: Balb/CJ mice, ovalbumin-sensitized and challenged; experiment: Mouse model of asthma: methacholine-induced airway reactivity (Penh) in ovalbumin-sensitized mice; assay type: in vivo; settings: po, 768 h, 50 mg/kg p.o., days 26-32, % inhibition of the PenH vs McH dose AUC compared with vehicle control, day 32, read-out: Reduction of Penh AUC at 50 mg/kg p.o.
Experimental: Protocol for Testing Compounds in a Mouse Model of Asthma
Male 5-6 week old Balb/CJ mice were obtained from Jackson Laboratories (Bar Harbor, Me.). All experimental animals were used in accordance to Institutional Animal Care and Use Committee of AtheroGenics, Inc. Mice were sensitized by administering an intraperitoneal injection of 20 μg of ovalbumin (Calbiochem, La Jolla, Calif.) adsorbed in 2 mg of alum (Imject Alum; Pierce, Rockford, Ill.) on day 0 and 14. A group of mice received saline and served as negative control animals. The mice were challenged by aerosol exposure to ovalbumin (1% [wt/vol]) for 25 minutes on 3 consecutive days (days 28, 29, and 30) in a plexiglas exposure chamber coupled to an Aeroneb nebulizer (Buxco Electronics, Wilmington, N.C.). Experimental compounds were dissolved in Glycofurol/PEG 300/Tween (35%/55%/10%) (Sigma-aldrich; Milwaukee, Wis.). Animals were dosed orally with either test compound or vehicle (6 ml/kg dosing volume) on days 26-32 of study. Compound or vehicle was administered 2 hour before the aerosol challenge on days 28, 29, and 30 and 1 hour before airway reactivity measurement on day 32.
Methacholine-induced airway reactivity was assessed on day 32. Methacholine was administered in increasing concentrations ([…], 1.5, 3, 6, 12, 25, and 50 mg/ml) to unrestrained mice. Increases in airway resistance to Methacholine were determined as enhanced pause, (Penh) values, during and after the exposure (6-minute total analysis time). Mice were then humanely euthanized with an overdose of ketamine/xylazine and plasma samples collected for determination of drug levels. The data is presented as the % inhibition of the PenH vs McH dose AUC compared with the vehicle control.
Data analysis was conducting using the software package, JMP (SAS Institute Inc; Cary, N.C.). The Dunnett's multiple comparison test was used to compare treatment group means to the vehicle control group. P values of less than 0.05 were considered statistically significant. The data (Table 1) are presented as the % inhibition of the PenH vs McH dose AUC compared with the vehicle control.

[2] = tested on: IL-8 secreted by human pulmonary artery endothelial cells (HPAEC); experiment: In vitro IL-8 assay: TNF-alpha-stimulated IL-8 secretion by HPAEC, ELISA; assay type: cell-based; settings: Endothelial cell, 10 microM compound, 20 hrs preincubation, then 2 ng/ml TNF-alpha for 4 hrs
Experimental: (§1) In Vitro IL-6 and IL-8 Assays
(§2) Compounds at dosing concentrations (with 0.2% DMSO vehicle) were incubated in EGM2MV cell media at 37° C. for overnight, added to 96-well plates seeded with confluent human pulmonary artery endothelial cells (HPAEC) for 20 hrs at 37° C., and then replaced with fresh dosing media containing 2 ng/ml tumor necrosis factor alpha for additional 4 hrs at 37° C. Afterwards, media was removed and used in ELISA assay to quantify the amount of IL-6 and IL-8 secreted by the cells using R&D Systems Duoset ELISA kits.

[3] = tested on: IL-6 secreted by human pulmonary artery endothelial cells (HPAEC); experiment: In vitro IL-6 assay: TNF-alpha-stimulated IL-6 secretion by HPAEC, ELISA; assay type: cell-based; settings: Endothelial cell, 10 microM compound, 20 hrs preincubation, then 2 ng/ml TNF-alpha for 4 hrs
Experimental: as §1, §2

Compound: Cc1cc2c(cc1O)C(C)(C)CC1(CC(C)(C)c3cc(OCCO)c(C)cc3O1)O2 (racemic) [Example 1, (±)-6′-Hydroxy-6-(2-hydroxyethoxy)-4,4,4′,4′,7,7′-hexamethyl-2,2′-spirobichroman]
- inhibition in vivo at 50 mg/kg [1]: < 20%
- inhibition at 10 µM [2]: 0%
- inhibition at 10 µM [3]: 20%
- melting point: 186 to 188 °C

Compound: Cc1cc(C)n(CCOc2cc3c(cc2C)OC2(CC(C)(C)c4cc(O)c(C)cc4O2)CC3(C)C)n1 (racemic) [Example 2, (±)-6′-Hydroxy-6-[2-(3,5-dimethyl-1H-pyrazol-1-yl)ethoxy]-4,4,4′,4′,7,7′-hexamethyl-2,2′-spirobichroman]
- inhibition in vivo at 50 mg/kg [1]: < 20%
- inhibition at 10 µM [2]: 12%
- inhibition at 10 µM [3]: 9%

Compound: Cc1cc2c(cc1O)C(C)(C)CC1(CC(C)(C)c3cc(OCCCO)c(C)cc3O1)O2 (racemic) [Example 3, (±)-6′-Hydroxy-6-(3-hydroxypropoxy)-4,4,4′,4′,7,7′-hexamethyl-2,2′-spirobichroman]
- inhibition in vivo at 50 mg/kg [1]: 20 to 40%
- inhibition at 10 µM [2]: 13%
- inhibition at 10 µM [3]: 53%
- melting point: 175 to 177 °C

Compound: Cc1cc2c(cc1O)C(C)(C)CC1(CC(C)(C)c3cc(OCCCn4cccn4)c(C)cc3O1)O2 (racemic) [Example 4, (±)-6′-Hydroxy-6-[3-(1H-pyrazol-1-yl)propoxy]-4,4,4′,4′,7,7′-hexamethyl-2,2′-spirobichroman]
- inhibition in vivo at 50 mg/kg [1]: < 20%
- inhibition at 10 µM [2]: 0%
- inhibition at 10 µM [3]: 44%

Compound: Cc1cc2c(cc1O)C(C)(C)CC1(CC(C)(C)c3cc(OC[C@@H](O)CO)c(C)cc3O1)O2 (mixture of isomers) [Example 5, (±)-6′-Hydroxy-6-[2(S),3-dihydroxypropoxy]-4,4,4′,4′,7,7′-hexamethyl-2,2′-spirobichroman]
- inhibition in vivo at 50 mg/kg [1]: 20 to 40%
- inhibition at 10 µM [2]: 11%
- inhibition at 10 µM [3]: 3%
- melting point: 218 to 220 °C

Compound: Cc1cc2c(cc1O)C(C)(C)CC1(CC(C)(C)c3cc(OCCCn4ccnc4)c(C)cc3O1)O2 (racemic) [Example 6, (±)-6′-Hydroxy-6-[3-(1H-imidazol-1-yl)propoxy]-4,4,4′,4′,7,7′-hexamethyl-2,2′-spirobichroman]
- inhibition at 10 µM [2]: 5%
- inhibition at 10 µM [3]: 24%
- melting point: 209 to 211 °C

Compound: Cc1cc2c(cc1O)C(C)(C)CC1(CC(C)(C)c3cc(OC(C)(C)C(=O)O)c(C)cc3O1)O2 (racemic) [Example 8, (±)-(6′-Hydroxy-4,4,4′,4′,7,7′-hexamethyl-2,2′-spirobichroman-6-yloxy)-dimethylacetic acid]
- inhibition in vivo at 50 mg/kg [1]: > 40%
- inhibition at 10 µM [2]: 25%
- inhibition at 10 µM [3]: 42%

- melting point: 208 to 210 °C
Compound: Cc1cc(CO)n(CCCOc2cc3c(cc2C)OC2(CC(C)(C)c4cc(O)c(C)cc4O2)CC3(C)C)n1 (racemic) [Example 18, (±)-6′-Hydroxy-6-[3-(5-hydroxymethyl-3-methyl-1H-pyrazol-1-yl)propoxy]-4,4,4′,4′,7,7′-hexamethyl-2,2′-spirobichroman]
- inhibition at 10 µM [2]: 5%
- inhibition at 10 µM [3]: 41%

Compound: C=CCc1c(O)c(C)cc2c1C(C)(C)CC1(CC(C)(C)c3c(cc(C)c(O)c3CC=C)O1)O2 (racemic) [Example 23, (±)-6,6′-Dihydroxy-5,5′-diallyl-4,4,4′,4′,7,7′-hexamethyl-2,2′-spirobichroman]
- inhibition in vivo at 50 mg/kg [1]: < 20%
- melting point: 95 to 97 °C

Compound: Cc1cc2c(cc1O)C(C)(C)CC1(CC(C)(C)c3cc(O)c(C)cc3O1)O2 (racemic) [Example 24, (±)-6,6′-Dihydroxy-4,4,4′,4′,7,7′-hexamethyl-2,2′-spirobichroman]
- inhibition in vivo at 50 mg/kg [1]: 20 to 40%
- inhibition at 10 µM [2]: 51%
- inhibition at 10 µM [3]: 65%

Compound: Cc1cc2c(cc1O)C(C)(C)CC1(CC(C)(C)c3cc(O)c(C)cc3O1)O2 [Example 27, (−)-(S)-6,6′-dihydroxy-4,4,4′,4′,7,7′-hexamethyl-2,2′-spirobichroman]
- inhibition in vivo at 50 mg/kg [1]: > 40%
- melting point: 165 to 166 °C
